The nature of series [1]: Solubility of the compound. Type of series: physicochemical.
The nature of series [2]: Metabolic stability in human liver microsomes assessed as parent compound remaining after 30 mins. As to conditions: read-out: Stability. The series is classed as ADME, Microsome. (Microsomes from liver hold many membrane-bound enzymes, among them those of drug oxidation.)
Series [3] is described as follows: Metabolic stability in mouse liver microsomes assessed as parent compound remaining after 30 mins. The series is classed as ADME, Microsome. The settings on record: read-out: Stability.
Series [4] has as its target T1, Isocitrate dehydrogenase [NADP] cytoplasmic (Homo sapiens, UniProt O75874, R132C). Description: Inhibition of recombinant human Myc-DDK-tagged IDH1 R132C mutant using alpha-ketoglutarate as substrate preincubated for 15 mins followed by substrate and NADPH addition and measured after 45 mins by diaphorase/resazurin dye based assay.
Target sequence in this assay (O75874 2-414 R132C limits assumed): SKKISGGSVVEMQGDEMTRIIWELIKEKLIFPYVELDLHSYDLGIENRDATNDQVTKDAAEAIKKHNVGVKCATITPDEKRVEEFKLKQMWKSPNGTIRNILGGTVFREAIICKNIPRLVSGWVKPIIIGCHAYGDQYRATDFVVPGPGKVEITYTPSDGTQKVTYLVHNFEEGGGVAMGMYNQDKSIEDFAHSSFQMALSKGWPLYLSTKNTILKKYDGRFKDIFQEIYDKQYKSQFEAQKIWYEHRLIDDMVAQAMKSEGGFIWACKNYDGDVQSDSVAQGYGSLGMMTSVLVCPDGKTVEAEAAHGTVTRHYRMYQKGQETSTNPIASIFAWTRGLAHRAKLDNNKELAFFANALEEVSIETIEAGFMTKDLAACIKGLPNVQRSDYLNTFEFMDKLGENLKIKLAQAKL
Series [5] concerns the target T2, Isocitrate dehydrogenase [NADP] cytoplasmic (Homo sapiens, UniProt O75874, R132H). Nature of the series: Inhibition of recombinant human Myc-DDK-tagged IDH1 R132H mutant using alpha-ketoglutarate as substrate preincubated for 15 mins followed by substrate and NADPH addition and measured after 45 mins by diaphorase/resazurin dye based assay. (Resazurin is reduced to fluorescent resorufin, in cell work by metabolically active cells.)
Target sequence in this assay (O75874 2-414 R132H limits assumed): as the sequence (O75874 2-414 R132C limits assumed) above, with C131H counted along it

The target of series [6] is T2, Isocitrate dehydrogenase [NADP] cytoplasmic. Description: Inhibition of IDH1 R132H mutant in human HCT116 cells assessed as reduction in 2-HG levels after 24 hrs by RapidFire high-throughput mass spectrometry assay. The series is classed as cell-based.
Target sequence in this assay (O75874 whole entry R132H): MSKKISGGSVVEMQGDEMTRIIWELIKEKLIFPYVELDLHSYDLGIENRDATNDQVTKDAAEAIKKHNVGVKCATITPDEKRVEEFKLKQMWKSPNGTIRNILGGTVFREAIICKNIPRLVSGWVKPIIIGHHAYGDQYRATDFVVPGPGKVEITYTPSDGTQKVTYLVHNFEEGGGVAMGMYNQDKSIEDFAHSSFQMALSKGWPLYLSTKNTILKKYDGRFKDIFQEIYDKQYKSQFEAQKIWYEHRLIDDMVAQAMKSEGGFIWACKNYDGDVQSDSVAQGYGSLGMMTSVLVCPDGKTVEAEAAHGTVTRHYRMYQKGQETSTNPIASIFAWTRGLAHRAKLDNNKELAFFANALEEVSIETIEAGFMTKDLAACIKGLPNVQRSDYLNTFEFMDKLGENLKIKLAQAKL
Series [7] has as its target T1, Isocitrate dehydrogenase [NADP] cytoplasmic. Nature of the series: Inhibition of IDH1 R132C mutant in human HCT116 cells assessed as reduction in 2-HG levels after 24 hrs by RapidFire high-throughput mass spectrometry assay. Type of series: cell-based.
Target sequence in this assay (O75874 whole entry R132C): as the sequence (O75874 whole entry R132H) above, with H132C counted along it
The subject of series [8] is Mus musculus. Description: In vivo inhibition of IDH1 R132H mutant in human HCT116 cells xenografted in BALB/c nude mouse assessed as reduction in tumor 2-HG level at 50 mg/kg, po administered at 12 hrs intervals for 3 times measured up to 24 hrs post-last dose by LC-MS analysis relative to control. The series is classed as functional. The settings on record: HCT-116, po. On the technique in general: In xenograft studies the graft and the host belong to different species.

The test system of series [9] is Mus musculus. Description: In vivo inhibition of IDH1 R132C mutant in human HCT116 cells xenografted in BALB/c nude mouse assessed as reduction in tumor 2-HG level at 50 mg/kg, po administered at 12 hrs intervals for 3 times measured at 12 to 24 hrs post-last dose by LC-MS analysis relative to control. As to conditions: HCT-116, po. The series is classed as functional.

The test system of series [10] is Mus musculus. Nature of the series: In vivo inhibition of IDH1 R132H mutant in human HCT116 cells xenografted in po dosed BALB/c nude mouse assessed as reduction in tumor 2-HG level administered at 12 hrs intervals for 3 times measured up to 24 hrs post-last dose by LC-MS analysis. The series is classed as functional.
Series [11] deals with Mus musculus. Description: In vivo inhibition of IDH1 R132C mutant in human HCT116 cells xenografted in po dosed BALB/c nude mouse assessed as reduction in tumor 2-HG level administered at 12 hrs intervals for 3 times measured up to 24 hrs post-last dose by LC-MS analysis. The series is classed as functional.
The nature of series [12]: Free Cmax in CD1 mouse at 100 mg/kg, po administered as single dose. Type of series: ADME, organism-based. The settings on record: in vivo.
Series [13] in a line: Free Cmax in CD1 mouse at 100 mg/kg, po administered as single dose measured after 7 hrs. Type of series: ADME, organism-based. As to conditions: in vivo.
The nature of series [14]: Time at which fCmax required to show >90% suppression of 2-HG level in human HCT116 cells xenografted BALB/c nude mouse in CD1 mouse at 100 mg/kg, po. The series is classed as ADME, organism-based. As to conditions: in vivo.
The nature of series [15]: Permeability of the compound by PAMPA. Type of series: ADME. The settings on record: read-out: permeability.
Series [16] in a line: Apparent permeability across basolateral to apical side in human Caco2 cells. The settings on record: caco-2. Type of series: ADME, cell-based.
Series [17] can be described thus: Apparent permeability across apical to basolateral side in human Caco2 cells. The series is classed as ADME, cell-based. The settings on record: caco-2.
A short description of series [18]: Kinetic solubility of the compound at pH 7.4. The series is classed as physicochemical. As to conditions: buffer, read-out: Kinetic_solubility.

Here are results for 14 compounds from ChEMBL document CHEMBL4321881 (J Med Chem, 2020).

Each structure is given as a SMILES string. ≈ marks a conversion by molar mass, not a printed value. Bounds are passed on as bounds.

As a reminder, the solubility is the dissolved amount per volume that the medium holds. One may read the IC50 as the point on the concentration scale where inhibition reaches its midpoint. The term inhibition in vivo denotes how much of the control response was suppressed.

`COc1cc2[nH]c(=O)c([C@H](C)Nc3ccc(C#N)n(C)c3=O)cc2cc1Cl` had a solubility in [1] of 11.6 µM (≈ 4.46 µg/mL). The remaining at 0.5 h in series [2] was found to be 83%.

For the compound `Cn1cccc(NCc2cc3cc(Cl)ccc3[nH]c2=O)c1=O`, the concentration in solution in series [1] (solubility) was 54 µM (≈ 17.1 µg/mL). Also, the remaining at 0.5 h came out at 90% in series [2] and 26% in [3].

`C[C@H](Nc1ccc(C#N)n(C)c1=O)c1cc2cc(Cl)c(F)cc2[nH]c1=O` showed a solubility in [1] of 18 µM (≈ 6.71 µg/mL). In addition, the IC50 came out at 159 nM in [4], 25 nM in [5], 22 nM in [6] and 104 nM in series [7]. Moreover, the remaining at 0.5 h in [2] was 100%.

`N#Cc1ccc(NCc2cc3cc(Cl)ccc3[nH]c2=O)c(=O)[nH]1` yielded a solubility in [1] of 2.21 µM (≈ 0.722 µg/mL). The IC50 in series [5] amounted to 64.7 nM. The remaining at 0.5 h in [2] is 100%; in series [3] it was 86%.

In the case of `O=c1[nH]c2ccc(Cl)cc2cc1CNc1cccn(C2CC2)c1=O`, the solubility in series [1] was found to be 56 µM (≈ 19.1 µg/mL). The remaining at 0.5 h in series [2] turned out to be 78%; in series [3] it was 7%.

Compound `C[C@H](Nc1ccc(C#N)n(C)c1=O)c1cc2cc(Cl)c(OCC3CC3)cc2[nH]c1=O` came in with a solubility in series [1] of 0.53 µM (≈ 0.225 µg/mL). In addition, the remaining at 0.5 h in series [2] is 82%.

`Cn1c(C(F)(F)F)ccc(NCc2cc3cc(Cl)ccc3[nH]c2=O)c1=O` gave a solubility in series [1] below 0.1 µM. Further, in series [5], the half-inhibitory concentration (IC50) was 160 nM. The remaining at 0.5 h in series [2] came out at 85%; in series [3] it was 67%.

In turn, `C[C@H](Nc1ccc(C#N)n(C)c1=O)c1cc2cc(Cl)c(OCc3ccccn3)cc2[nH]c1=O` returned a solubility in [1] of 2.5 µM (≈ 1.15 µg/mL). For the same compound, in series [2], the remaining at 0.5 h worked out at 66%.

For `C[C@H](Nc1ccc(C#N)n(C)c1=O)c1cc2cc(Cl)c(O[C@H](C)c3ccccn3)cc2[nH]c1=O`, the solubility in series [1] was found to be 1.6 µM (≈ 0.761 µg/mL). The remaining at 0.5 h in series [2] was determined as 70%.

Compound `COc1cccc(NCc2cc3cc(Cl)ccc3[nH]c2=O)c1` gave a solubility in series [1] of 0.28 µM (≈ 0.0881 µg/mL). Besides, the concentration for half-maximal inhibition (IC50) in series [5] was above 25000 nM. Moreover, the remaining at 0.5 h in series [2] turned out to be 78%; in [3], 19%.

As to `CN1CCCC(NCc2cc3cc(Cl)ccc3[nH]c2=O)C1=O` (stereo unspecified), the concentration in solution in series [1] (solubility) came to 94 µM (≈ 30.1 µg/mL). For the same compound, the IC50 in series [5] is 25000 nM. Besides, the remaining at 0.5 h in series [2] amounted to 99%; in [3], 83%.

The compound `Cn1c(C#N)ccc(NCc2cc3cc(Cl)ccc3[nH]c2=O)c1=O` had a solubility in series [1] of 0.295 µM (≈ 0.101 µg/mL). Also, the remaining at 0.5 h in series [2] came to 99%; in series [3] it was 73%.

As for `CCn1cccc(NCc2cc3cc(Cl)ccc3[nH]c2=O)c1=O`, the concentration in solution in [1] (solubility) came to 10 µM (≈ 3.3 µg/mL). Also, the remaining at 0.5 h in series [2] turned out to be 72%; in series [3], 7%.

Regarding `C[C@H](Nc1ccc(C#N)n(C)c1=O)c1cc2cc(Cl)ccc2[nH]c1=O` [OLUTASIDENIB], in series [1], the solubility amounted to 34.5 µM (≈ 12.2 µg/mL). Besides, the remaining at 0.5 h was 100% in [2] and 92% in series [3]. Moreover, the inhibition in vivo at 50 mg/kg in the series with Mus musculus [8] and in the series on Mus musculus [9] was above 90% throughout. In addition, the fIC50 in the series with Mus musculus [10] is 26 nM; with Mus musculus [11], 36 nM. The fCmax in series [12] came out at 200 nM; in [13], 130 nM. The same compound showed a Time in series [14] of 7 h. Besides, the Papp was 19.9 ×10⁻⁶ cm/s in series [15], 9.01 ×10⁻⁶ cm/s in series [16] and 12.12 ×10⁻⁶ cm/s in series [17]. In addition, in [18], the solubility kinetic was 35.4 µM (≈ 12.6 µg/mL).
